Read-outs that look alike come from different tables or passages of the source. Values belong to the compound of their own block, whether it stands above or below them.
Assays:
[1] = tested on: MV522 human tumor carcinomas; assay: Tumor growth delay study in mouse MV522 xenograft model (TH-PT-001)
Method: Female nude mice (nu/nu) between 5 and 6 weeks of age and weighing approximately 20 g were obtained from Harlan, Inc. (Madison, Wis.). Animals were implanted subcutaneously by trocar with fragments of Mv522 human tumor carcinomas harvested from subcutaneously growing tumors in nude mice hosts. When the tumors were approximately 71 mg in size (11 days following inoculation), the animals were pair-matched into treatment and control groups. Each group contained 10 tumored mice. Each mouse was ear-tagged and followed individually throughout the experiment. Initial doses were given on Day 1 following pair-matching. […] Sterile water was administered orally bid×5 to end to serve as the negative control. Mice were weighed twice weekly, and tumor measurements were obtained using calipers twice weekly, starting on Day 1. These tumor measurements were converted to mg tumor weight by the standard formula (W^2×L)/2. Each mouse was sacrificed when its tumor weight reached 1000 mg. In this test, the average day of sacrifice was determined for all groups and the tumor growth delay (TGD) for each treatment group, compared to the control group, was calculated.
All of these studies are outlined in the following table.

[2] = tested on: human non-small cell lung cancer (NSCLC) tumor cell lines; assay: Proliferation with simultaneous 2-DG and Taxol treatment; assay type: cell-based
MV522 xenograft = assay: 2-DG/Paclitaxel dosing study in mouse MV522 xenograft model; assay type: in vivo
Method: The mouse MV522 xenograft model substantially as described in Example 2 was used to compare the effects of dosing 2-DG orally (in water) either at a single dose of 4 g/kg or in multiple doses (twice a day at 2 g/kg) in various combinations with paclitaxel dosed i.p. as a single dose (30 mg/kg) or in multiple doses (once daily at 10 mg/kg).

[3] = tested on: MiaPaCa-2 pancreatic carcinoma; assay: MTS growth inhibition assay, single agent studies; assay type: cell-based; conditions: Homo sapiens, MIA PaCa-2, 72 h, 3 days in culture
Method: (§1) Human tumor cell lines MiaPaCa-2 pancreatic carcinoma (mutant ras, gemcitabine sensitive) and HT-29 colon carcinoma (polyposis type, mutant p53 and APC, chemosensitive) were purchased from the ATCC (Rockville, Md.). […] Cells grown to 70% confluency were trypsinized and resuspended into cell culture medium at a concentration of 10^5 cells/ml. On Day 0 of the experiment, a […] aliquot of tumor cells was plated into internal wells of a 96-well microtiter plate at an appropriate density (in the range of 2×10^3 to 10^4 cells/well). The cells were incubated for 24 hours to allow maximum adhesion prior to exposure with test agents. […] The starting concentration and the test range of 5-FU were determined empirically for each cell line. Treatment with 5-FU started on Day 1. There were 6 replicates for each dose determination. Both drugs were added once without the medium change. After 3 days in culture, the number of proliferating cells was measured by the MTS assay described below. The test was repeated twice to quantify growth inhibitory activity. […] IC50 values were generated from two separate experiments. […] The MTS reagent is a tetrazolium compound and an electron coupling reagent. The MTS tetrazolium compound is bioreduced by cells into a colored formazan product soluble in cell culture medium. The conversion is catalyzed by NADPH or NADH produced by dehydrogenase enzymes in metabolically active cells. The MTS assay is a colorimetic assay based upon the ability of viable cells to convert […] to formazan; the quantity of formazan product, as measured by the 490 nm absorbance, is directly proportional to the number of viable cells in culture. An automated procedure determines the IC50 value. Exponentially growing cells in […] of cell culture medium are plated on Day 0 in 96-well microtiter plates at a concentration of 10^4 cells/well. […] At the end of the designated time period, 100 microL of growth medium is removed. […] Absorbance is documented on a Dynex HD microplate reader at a wavelength of 490 nm. The data was calculated as percent growth inhibition, wherein 0% represents the mean value in wells to which only vehicle (cell culture medium) was added. The % Growth Inhibition was calculated as follows: % Growth Inhibition=(1−(ODtest/ODvehicle)×100, where ODtest is the optical density of the tested sample, and ODvehicle is the optical density of the vehicle in which each respective drug is dissolved. […] To determine the interaction, there must be a significant difference that exists between the combination absorbance values and both endpoint values. For example, if the values are statistically (p<0.05) above or below the absorbance values of either agent tested alone, then antagonism or synergy is described. […]

HT-29 colon carcinoma = assay: MTS growth inhibition assay, single agent studies; assay type: cell-based; conditions: Homo sapiens, HT-29, 72 h, 3 days in culture
Method: as §1

[4] = for deaths: bid×5
Method: (§2) The maximum tolerated dose determination for this study was conducted using female nude mice (nu/nu) between 5 and 6 weeks of age weighing approximately 20 g (Harlan, Inc., Madison, Wis.). Dosing began on Day 1. […] A 20 mL/kg dose volume was used to achieve doses of 2000, 4000, 6000, 8000, and 9000 mg/kg/dose. Individual mouse weights in grams were recorded twice weekly throughout the study. The average weight per group was calculated, and weight gain or loss was determined by comparing the current Day's average to the Day 1 average for that same group. The study was terminated on Day 21.

[5] = rat, in vivo
NCI-H23 cells = assay: Sulforhodamine B (SRB) growth inhibition assay; assay type: cell-based; conditions: Homo sapiens, 72 hours treatment
Method: (§3) The human lung tumor cell lines were MV522 and NCI-H23, both of which were derived from tumors displaying histopathology of adenocarcinoma, one of the at least three types of NSCLC. The NCI-H23 tumor cell line is available from the ATCC (Rockville, Md.), and the MV522 cell line was obtained by Dr. M. J. Kelner of the University of California. The cells were cultured in RPMI medium (Nova Tech, Grand Island, N.Y.) at 37° C. in a humidified atmosphere containing 5% CO2. For passaging, cells grown in 75 cm^2 flasks (60–70% confluency) were washed with PBS and dislodged from the flasks with trypsin (Gibco BRL) before being passaged. Cells used for the experiments described below were centrifuged and resuspended in cell culture medium at a concentration of 10^5 cells/mL. A 100 microliter aliquot (ten thousand cells) was plated into each well of a 96-well microtiter plate.
(§4) Docetaxel (Taxotere™, Aventis Pharmaceuticals, Inc.) solubilized in 100% DMSO and diluted 1000×to the desired concentration (0.1% DMSO final concentration), was used as a positive control. […] Exponentially growing cells in 100 microliters of cell culture medium were plated on Day 0 in 96-well microtiter plates at a concentration of 10^4 cells/well. On Day 1, drugs were added to each well of the microtiter plate with the designated concentration in 100 microliter aliquots of cell culture medium and incubated at 37° C. in a humidified incubator (5% CO2/95% HEPA filtered air). After three days of treatment, adherent cells were fixed by adding 50 microliters of cold 50% trichloracetic acid to each well and incubating for one hour at 4° C. The supernatant was discarded, and plates were washed twice with de-ionized water and air-dried. One hundred microliters of SRB solution were added to each well of the plate and incubated ten minutes at room temperature. Unbound SRB stain was removed by washing twice with 1% acetic acid. The bound SRB stain was solubilized with 10 mM Tris buffer, and the optical densities read at a single wavelength of 515 nm.
(§5) IC50 values (50% effective dose) were calculated from two different experiments, each of which involved 6 replicates for each dose tested. […]

MV522 cells = assay: Sulforhodamine B (SRB) growth inhibition assay; assay type: cell-based; conditions: Homo sapiens, 72 hours treatment
Method: as §3, §4, §5

[6] = dog, in vivo
[7] = MTD study of combined 2-DG/cisplatin treatment versus cisplatin alone (TH-PT-002); conditions: cisplatin 2, 3, or 4 mg/kg/dose i.p. qd Days 6–10 with or without 2-DG 2000 mg/kg/dose oral qd days 1–10
Method: as §2, with “A 20 mL/kg dose volume was used to achieve doses of 2000, 4000, 6000, 8000, and 9000 mg/kg/dose.” left out

H2347 cells = assay: Inhibition of proliferation of Taxol-resistant cell line; assay type: cell-based; conditions: Homo sapiens, NCI-H2347
[8] = tested on: H460, H23, H522 and H661 cells; assay: Inhibition of proliferation of NSCLC tumor cell lines; assay type: cell-based; conditions: most human NSCLC tumor cell lines
[9] = tested on: MV522 non-small cell lung cancer (NSCLC) xenograft; assay: Third efficacy study, paclitaxel alone or with oral 2-DG, tumor growth delay (TH-PT-003); assay type: in vivo, nude mice; conditions: paclitaxel alone 10 mg/kg/dose i.p. days 6–10
Method: An increase in efficacy was defined as a significant (P<0.05) increase in the time for the tumor to grow to 1000 mg (tumor growth delay—TGD) compared to vehicle alone or, for combination treatment groups, chemotherapy alone, as calculated using a two-tailed t-test. Female nude mice, ten per treatment arm, were implanted subcutaneously (s.c.) with trocar fragments of MV522 tumors harvested from s.c. tumors growing in nude mice hosts. Body weights and tumor measurements were taken biweekly. When tumors reached ˜70 mg, treatment was started. Mice were sacrificed when their individual tumor reached ˜1000 mg. All doses are reported as mg/kg/dose. […] The mice were then dosed i.p. with 10 mg/kg/dose paclitaxel once a day on days 6–10. […] Dosing with paclitaxel began when the tumors were approximately 200 mg.

SMILES: O=CC[C@@H](O)[C@H](O)[C@H](O)CO [2-DG, 2-deoxy-D-glucose]
tumor growth rate ([1]; 2-DG single agent 0–2000 mg/kg/dose, twice a day): did not slow the tumor growth rate
mean day of sacrifice ([1]; 2-DG single agent 750 mg/kg p.o. bid×5 to end): 28.9+/−3.7
mean day of sacrifice ([1]; 2-DG single agent 1000 mg/kg p.o. (Days 1–14 dose 50 mg/kg) bid×5 to end): 27.2+/−2.7
mean day of sacrifice ([1]; 2-DG single agent 1500 mg/kg p.o. (Days 1–14 dose 150 mg/kg) bid×5 to end): 28.2+/−4.6
mean day of sacrifice ([1]; 2-DG single agent 2000 mg/kg p.o. (Days 1–14 dose 400 mg/kg) bid×5 to end): 29.4+/−3.1
toxic deaths ([1]; 2-DG single agent groups): no toxic deaths
weight loss ([1]; mouse, in vivo): little weight loss
effect on proliferation ([2]; 1 mM 2-DG by itself): no effect on proliferation by itself
tumor growth (MV522 xenograft; 2-DG alone, oral, 10 days of dosing more effective than 5): small delay in tumor growth
IC50 ([3]; 11 mM glucose medium): 2.62 mM
IC50 (HT-29 colon carcinoma; 11 mM glucose medium): 9.83 mM
deaths ([4]; 6000 mg/kg/dose group): One mouse died
deaths ([4]; 8000 and 9000 mg/kg/dose groups): All 5 mice died
maximum tolerated dose (MTD) ([4]; mouse, in vivo): 4000 mg/kg/dose
visible signs of toxicity, multiple dose (5-day) [5]: no visible signs of toxicity
toxicity, single oral dose ([5]; po): non-toxic
IC50 (NCI-H23 cells): 1860 ± 532 µM
IC50 (MV522 cells): 3.74 ± 0.74 mM
visible signs of toxicity, multiple dose (5-day) [6]: no visible signs of toxicity
tolerability, single oral doses ([6]; po): well tolerated
toxicity, single oral dose ([6]; po, 1 h): emesis at 1 hour but no other visible toxicity

IC50 [3]: 2.58 µg/mL
IC50 (HT-29 colon carcinoma): 1.9 µg/mL
SMILES: O=c1[nH]cc(F)c(=O)[nH]1 [5-FU, 5-fluoro-2,4(1H,3H)-pyrimidinedione, reference compound]

IC50 (NCI-H23 cells): 0.00164 ± 0.000211 µM
SMILES: CC(=O)O[C@@]12CO[C@@H]1C[C@H](O)[C@@]1(C)C(=O)[C@H](O)C3=C(C)[C@@H](OC(=O)[C@H](O)[C@@H](NC(=O)OC(C)(C)C)c4ccccc4)C[C@@](O)([C@@H](OC(=O)c4ccccc4)[C@H]21)C3(C)C [Docetaxel, reference compound]
IC50 (MV522 cells): 2.11e-06 ± 6.01e-07 mM

SMILES: N.N.[Cl][Pt][Cl] [cisplatin, cis-Diaminedichloroplatinum (II)]
TGD (tumor growth delay) ([1]; cisplatin 1 mg/kg i.p. Days 1–5): 15.8 days
TGD (tumor growth delay) ([1]; cisplatin 2 mg/kg i.p. Days 1–5): 32.6 days
mean day of sacrifice ([1]; cisplatin single agent 1 mg/kg i.p. Days 1–5): 42.3+/−0.9
mean day of sacrifice ([1]; cisplatin single agent 2 mg/kg i.p. Days 1–5): 59.1+/−5.7
complete regressions ([1]; high dose cisplatin group (2 mg/kg), 10 mice): Two mice
deaths during the 21 days of the study [7]: No mice died

SMILES: CC(=O)O[C@H]1C(=O)[C@@]2(C)[C@H]([C@H](OC(=O)c3ccccc3)[C@]3(O)C[C@H](OC(=O)[C@H](O)[C@@H](NC(=O)c4ccccc4)c4ccccc4)C(C)=C1C3(C)C)[C@]1(OC(C)=O)CO[C@@H]1C[C@@H]2O [paclitaxel]
toxic deaths ([1]; paclitaxel 16 mg/kg i.p. Days 1–5): no toxic deaths
complete regression ([1]; paclitaxel 16 mg/kg i.p. Days 1–5, 10 mice): one mouse experiencing a complete regression
mean day of sacrifice ([1]; paclitaxel 16 mg/kg i.p. Days 1–5, sacrifice at tumor weight 1000 mg): 56.8+/−4.3
TGD (tumor growth delay) ([1]; paclitaxel 16 mg/kg i.p. Days 1–5, vs negative control): 34.4 days
inhibition of proliferation ([2]; 200 nM Taxol alone, one test): ~20%
IC50 (H2347 cells): > 1000 nM
efficacy of single dose 30 mg/kg versus 5 doses at 10 mg/kg (MV522 xenograft; paclitaxel i.p.): more effective
IC50 [8]: 50 to 200 nM
deaths [9]: One death per group

From patent publication US6979675B2, “Treatment of cancer with 2-deoxyglucose” (Threshold Pharmaceuticals, Inc., priority 2003, dated 2005)
